US6962924B2, “Salt and polymorphs of desloratadine hemifumarate” (priority 2002, dated 2005)

Key:
[1] = mixed with three volumes of lactose monohydrate, 40° C. and 75% RH, one week
[2] = Stability of the polymorphic form (vacuum at 50° C., crushing); format: physicochemical
[3] = Hygroscopicity (moisture absorption) in DVS; format: physicochemical; details: relative humidity (RH) of 90%

Q: What does the source list for `Clc1ccc2c(c1)CCc1cccnc1C2=C1CCNCC1.Clc1ccc2c(c1)CCc1cccnc1C2=C1CCNCC1.O=C(O)C=CC(=O)O` [Desloratadine hemifumarate (polymorph 1), Descarbonylethoxyloratadine Hemifumarate]?
A: Appearance after stress storage (color, crystallinity, texture) [1]: retained its crystallinity, color and the texture; Change of polymorphic form under vacuum at 50° C. [2]: can be changed to polymorphic form 2; moisture absorption value ([3]; listed as desloratadine polymorphic form 1): 0.9%

Q: Which results are given for `Clc1ccc2c(c1)CCc1cccnc1C2=C1CCNCC1.Clc1ccc2c(c1)CCc1cccnc1C2=C1CCNCC1.O=C(O)C=CC(=O)O` [Desloratadine hemifumarate (polymorph 2), Descarbonylethoxyloratadine Hemifumarate]?
A: Appearance after stress storage (color, crystallinity, texture) [1]: retained its crystallinity, color and the texture; moisture absorption value ([3]; listed as Desloratadine hemifumarate polymorphic form 2): 0.3%

Q: For `Clc1ccc2c(c1)CCc1cccnc1C2=C1CCNCC1` [Standard desloratadine, 8-chloro-6,11-dihydro-11-(4-piperidylidene)-5H-benzo[5,6]-cyclohepta[1,2-b]pyridine, reference compound], which “Appearance after stress storage (color, crystallinity, texture)” value [1] is on record?
A: The value was “showed discoloration”.

Q: What about the moisture absorption value [3] of the same molecule?
A: The moisture absorption value was 0.3%.
